Experimental findings from PubChem BioAssay AID1745844 (Carcinogenic Potency Database (CPDB), 2022) are described below.

Activity calls are given as the source filed them. No rule for the calls is given here.

The series deals with rodent lifetime carcinogenesis bioassay, tumor incidence TD50. Nature of the series: carcinogenic potency in animals, long-term in vivo studies, CPDB compilation (AID 1745844).
Where [1] appears, read: mouse, strain B6AKF1, females, oral dosing, site: any site (literature study), lesion: several types, types named in the paper, dosed 76 weeks, study length 76 weeks.
The mark [2] stands for this setting: mouse, strain B6AKF1, females, oral dosing, site: liver, lesion: hepatoma, dosed 76 weeks, study length 76 weeks.
The mark [3] stands for this setting: mouse, strain B6AKF1, females, oral dosing, site: lung, lesion: adenoma, dosed 76 weeks, study length 76 weeks.
Setting [4] is: mouse, strain B6AKF1, males, oral dosing, site: any site (literature study), lesion: several types, types named in the paper, dosed 76 weeks, study length 76 weeks.
The mark [5] stands for this setting: mouse, strain B6AKF1, males, oral dosing, site: liver, lesion: hepatoma, dosed 76 weeks, study length 76 weeks.
The mark [6] stands for this setting: mouse, strain B6AKF1, males, oral dosing, site: lung, lesion: adenoma, dosed 76 weeks, study length 76 weeks.
Setting [7] is: mouse, strain B6C3F1, females, oral dosing, site: liver, lesion: hepatoma, dosed 76 weeks, study length 76 weeks.
The mark [8] stands for this setting: mouse, strain B6C3F1, males, oral dosing, site: any site (literature study), lesion: several types, types named in the paper, dosed 76 weeks, study length 76 weeks.
[9] abbreviates: mouse, strain B6C3F1, males, oral dosing, site: liver, lesion: hepatoma, dosed 76 weeks, study length 76 weeks.

`O=C1CCCCC1` showed a TD50 (mouse, strain B6C3F1, females, in drinking water, site: all sites, lesion: malignant lymphoma, dosed 104 weeks, study length 107 weeks) of 3690 mg/kg/day; a TD50 (rat, strain Fischer 344, females, in drinking water, site: liver, lesion: neoplastic nodule, dosed 104 weeks, study length 107 weeks) of 6300 mg/kg/day; a TD50 (rat, strain Fischer 344, males, in drinking water, site: adrenal gland, lesion: cortical adenoma, dosed 104 weeks, study length 107 weeks) of 929 mg/kg/day.
Consider `CCCCN(CCCC)C(=S)[S-].CCCCN(CCCC)C(=S)[S-].[Ni+2]`, for which the TD50 reads like this: under setting [1], 0.185 mg/kg/day (inactive); under setting [3], 0.0869 mg/kg/day (inactive); under setting [6], 0.153 mg/kg/day (inactive); (mouse, strain B6C3F1, females, oral dosing, site: any site (literature study), lesion: several types, types named in the paper, dosed 76 weeks, study length 76 weeks) 0.174 mg/kg/day (inactive); (mouse, strain B6C3F1, females, oral dosing, site: lung, lesion: adenoma, dosed 76 weeks, study length 76 weeks) 0.174 mg/kg/day (inactive); under setting [8], 0.0283 mg/kg/day (inactive). For the same compound, the TD50 is, setting by setting: under setting [9], 0.0509 mg/kg/day (inactive); (mouse, strain B6C3F1, males, oral dosing, site: lung, lesion: adenoma, dosed 76 weeks, study length 76 weeks) 0.163 mg/kg/day (inactive). The carcinogen call runs as follows: under setting [2], “negative (inactive)”; under setting [4], “negative (inactive)”; under setting [5], “negative (inactive)”; under setting [7], “negative (inactive)”.
For the compound `CC1(C)[C@@H](O[C@H]2O[C@H](C(=O)O)[C@@H](O)[C@H](O)[C@H]2O[C@@H]2O[C@H](C(=O)O)[C@@H](O)[C@H](O)[C@H]2O)CC[C@]2(C)[C@H]3C(=O)C=C4[C@@H]5C[C@@](C)(C(=O)O)CC[C@]5(C)CC[C@@]4(C)[C@]3(C)CC[C@@H]12`, the carcinogen call is “negative (inactive)” (mouse, strain B6C3F1, females, in drinking water, site: any site (literature study), lesion: several types, types named in the paper, dosed 96 weeks, study length 110 weeks); “negative (inactive)” (mouse, strain B6C3F1, females, in drinking water, site: liver, lesion: hemangioma, dosed 96 weeks, study length 110 weeks); “negative (inactive)” (mouse, strain B6C3F1, females, in drinking water, site: lung, lesion: adenocarcinoma, dosed 96 weeks, study length 110 weeks); “negative (inactive)” (mouse, strain B6C3F1, males, in drinking water, site: liver, lesion: hemangioma, dosed 96 weeks, study length 110 weeks); “negative (inactive)” (mouse, strain B6C3F1, males, in drinking water, site: liver, lesion: hepatocellular adenoma, dosed 96 weeks, study length 110 weeks); “negative (inactive)” (mouse, strain B6C3F1, males, in drinking water, site: liver, lesion: hepatocellular carcinoma, dosed 96 weeks, study length 110 weeks). Besides, the carcinogen call was “negative (inactive)” (mouse, strain B6C3F1, males, in drinking water, site: lung, lesion: adenocarcinoma, dosed 96 weeks, study length 110 weeks) and “negative (inactive)” (mouse, strain B6C3F1, males, in drinking water, site: lung, lesion: adenoma, dosed 96 weeks, study length 110 weeks). The TD50 is 28900 mg/kg/day (inactive) (mouse, strain B6C3F1, females, in drinking water, site: liver, lesion: hepatocellular adenoma, dosed 96 weeks, study length 110 weeks); 29000 mg/kg/day (inactive) (mouse, strain B6C3F1, females, in drinking water, site: liver, lesion: hepatocellular carcinoma, dosed 96 weeks, study length 110 weeks); 14400 mg/kg/day (inactive) (mouse, strain B6C3F1, females, in drinking water, site: lung, lesion: adenoma, dosed 96 weeks, study length 110 weeks); 3170 mg/kg/day (inactive) (mouse, strain B6C3F1, males, in drinking water, site: any site (literature study), lesion: several types, types named in the paper, dosed 96 weeks, study length 110 weeks).
As for `O=NN1CSCSC1`, the TD50 reads like this: (rat, strain Fischer 344, females, by gavage, site: liver, lesion: hepatocellular carcinoma, dosed 47 weeks, study length 110 weeks) 10.5 mg/kg/day (inactive); (rat, strain Fischer 344, females, by gavage, site: nasal mucosa, lesion: carcinoma, dosed 47 weeks, study length 110 weeks) 5.11 mg/kg/day.
Take `Nc1ccc(-c2ccc(F)cc2)cc1`: the TD50 (mouse, strain CBA, females, by gavage, site: liver, lesion: hepatoma, dosed 26 weeks, study length 114 weeks) was 1.09 mg/kg/day; the TD50 (mouse, strain CBA, males, by gavage, site: liver, lesion: hepatoma, dosed 26 weeks, study length 104 weeks) is 1.19 mg/kg/day; the TD50 (mouse, strain CBA, males, by gavage, site: liver, lesion: several types, types named in the paper, dosed 26 weeks, study length 104 weeks) worked out at 1.19 mg/kg/day.
Consider `Cc1cccc2cccnc12`, for which the carcinogen call (rat, strain Fischer 344, females, in feed, site: liver, lesion: hyperplastic nodule, dosed 104 weeks, study length 104 weeks) was “negative (inactive)” and the carcinogen call (rat, strain Fischer 344, males, in feed, site: liver, lesion: hyperplastic nodule, dosed 104 weeks, study length 104 weeks) is “negative (inactive)”.
`N/C(=N\O)c1ccc([N+](=O)[O-])o1`: the TD50 (rat, strain Sprague-Dawley, females, in feed, site: any site (literature study), lesion: several types, types named in the paper, dosed 46 weeks, study length 66 weeks) is 42 mg/kg/day (inactive).
For the compound `CC1(C)[C@H](C(=O)O[C@H](C#N)c2cccc(Oc3ccccc3)c2)[C@@H]1C=C(Br)Br`, the carcinogen call (mouse, strain C57BL/6, females, by gavage, site: all sites, lesion: lymphoma, dosed 104 weeks, study length 114 weeks) was “negative (inactive)”; the carcinogen call (mouse, strain C57BL/6, females, by gavage, site: any site (literature study), lesion: one or several types, types not named, dosed 104 weeks, study length 114 weeks) is “negative (inactive)”; the carcinogen call (mouse, strain C57BL/6, females, by gavage, site: liver, lesion: hepatoma, dosed 104 weeks, study length 114 weeks) is “negative (inactive)”; the carcinogen call (mouse, strain C57BL/6, females, by gavage, site: lung, lesion: adenoma, dosed 104 weeks, study length 114 weeks) is “negative (inactive)”; the carcinogen call (mouse, strain C57BL/6, males, by gavage, site: any site (literature study), lesion: one or several types, types not named, dosed 104 weeks, study length 114 weeks) was “negative (inactive)”; the carcinogen call (mouse, strain C57BL/6, males, by gavage, site: liver, lesion: hepatoma, dosed 104 weeks, study length 114 weeks) is “negative (inactive)”. For the same compound, the carcinogen call is, setting by setting: (mouse, strain C57BL/6, males, by gavage, site: lung, lesion: adenoma, dosed 104 weeks, study length 114 weeks) “negative (inactive)”; (rat, strain BD VI, females, by gavage, site: liver, lesion: hepatoma, dosed 104 weeks, study length 114 weeks) “negative (inactive)”; (rat, strain BD VI, males, by gavage, site: any site (literature study), lesion: one or several types, types not named, dosed 104 weeks, study length 114 weeks) “negative (inactive)”; (rat, strain BD VI, males, by gavage, site: liver, lesion: hepatoma, dosed 104 weeks, study length 114 weeks) “negative (inactive)”. Moreover, the TD50 reads like this: (rat, strain BD VI, females, by gavage, site: any site (literature study), lesion: one or several types, types not named, dosed 104 weeks, study length 114 weeks) 36.1 mg/kg/day (inactive); (rat, strain BD VI, females, by gavage, site: thyroid gland, lesion: adenoma, dosed 104 weeks, study length 114 weeks) 16.9 mg/kg/day (inactive); (rat, strain BD VI, males, by gavage, site: thyroid gland, lesion: adenoma, dosed 104 weeks, study length 114 weeks) 4.6 mg/kg/day (inactive).
With `CC(=O)C1C(=O)C=C(C)OC1=O` (centres undefined), the carcinogen call is, setting by setting: under setting [1], “negative (inactive)”; under setting [2], “negative (inactive)”; under setting [3], “negative (inactive)”; under setting [4], “negative (inactive)”; under setting [5], “negative (inactive)”; under setting [6], “negative (inactive)”. Also, the carcinogen call is “negative (inactive)” (mouse, strain B6C3F1, females, oral dosing, site: any site (literature study), lesion: one or several types, types not named, dosed 76 weeks, study length 76 weeks); “negative (inactive)” under setting [7]; “negative (inactive)” (mouse, strain B6C3F1, females, oral dosing, site: lung, lesion: several types, types named in the paper, dosed 76 weeks, study length 76 weeks); “negative (inactive)” under setting [9]; “negative (inactive)” (mouse, strain B6C3F1, males, oral dosing, site: lung, lesion: several types, types named in the paper, dosed 76 weeks, study length 76 weeks). In addition, the TD50 under setting [8] is 202 mg/kg/day (inactive).
`Oc1ccc2c(c1)OCO2`: the TD50 is, setting by setting: (mouse, strain B6C3F1, females, in feed, site: forestomach, lesion: sarcoma, dosed 96 weeks, study length 96 weeks) 44800 mg/kg/day; (mouse, strain B6C3F1, females, in feed, site: forestomach, lesion: squamous-cell carcinoma, dosed 96 weeks, study length 96 weeks) 8330 mg/kg/day; (mouse, strain B6C3F1, females, in feed, site: liver, lesion: hyperplastic nodule, dosed 96 weeks, study length 96 weeks) 44800 mg/kg/day; (mouse, strain B6C3F1, males, in feed, site: forestomach, lesion: squamous-cell carcinoma, dosed 96 weeks, study length 96 weeks) 3070 mg/kg/day; (mouse, strain B6C3F1, males, in feed, site: lung, lesion: adenoma, dosed 96 weeks, study length 96 weeks) 41300 mg/kg/day; (mouse, strain B6C3F1, males, in feed, site: stomach, glandular, lesion: sarcoma, dosed 96 weeks, study length 96 weeks) 41300 mg/kg/day. Besides, the TD50 is 1090 mg/kg/day (rat, strain F344/DuCrj, females, in feed, site: forestomach, lesion: papilloma, dosed 104 weeks, study length 104 weeks); 6500 mg/kg/day (rat, strain F344/DuCrj, females, in feed, site: forestomach, lesion: squamous-cell carcinoma, dosed 104 weeks, study length 104 weeks); 1350 mg/kg/day (rat, strain F344/DuCrj, males, in feed, site: forestomach, lesion: papilloma, dosed 104 weeks, study length 104 weeks); 708 mg/kg/day (rat, strain F344/DuCrj, males, in feed, site: forestomach, lesion: several types, types named in the paper, dosed 60 weeks, study length 60 weeks); 3920 mg/kg/day (rat, strain F344/DuCrj, males, in feed, site: forestomach, lesion: squamous-cell carcinoma, dosed 60 weeks, study length 60 weeks); 1540 mg/kg/day (rat, strain F344/DuCrj, males, in feed, site: forestomach, lesion: squamous-cell carcinoma, dosed 104 weeks, study length 104 weeks). The TD50 was 909 mg/kg/day (rat, strain F344/DuCrj, males, in feed, site: forestomach, lesion: squamous-cell papilloma, dosed 60 weeks, study length 60 weeks) and 16200 mg/kg/day (rat, strain F344/DuCrj, males, in feed, site: stomach, glandular, lesion: adenoma, dosed 104 weeks, study length 104 weeks).

The term TD50 denotes the 50% point of the dose-response relation for the toxic effect studied.
